Source: US8685997B2, “Camptothecin derivatives and their use” (Shanghai Institute of Materia Medica, Chinese Academy of …, priority 2006, dated 2014)
Where two headings read alike, the source gives them in different places. Values belong to the compound of their own block, whether it stands above or below them.

Key:
K562 cell line = assay: Anti-multidrug resistance evaluation, parent cell line; assay type: cell-based; conditions: Homo sapiens; K562 cells
Source text: (§1) 2. The multidrug resistance cell line K562/A02 and its parent K562 cell line were used to evaluate the anti-multidrug resistance of the CPT-4 active metabolite.

[1] = test system: multidrug resistance cell line K562/A02; assay: Anti-multidrug resistance evaluation, multidrug resistance cell line; assay type: cell-based
Source text: as §1

[2] = test system: human rectal cancer HCT-116 xenografts; assay: Human rectal cancer HCT-116 xenografts in nude mice; conditions: for Body weight (g) At the end / RTV / TV (mm^3) d0 / TV (mm^3) d21 / Body weight (g) At the beginning / T/C (%): q3w × 3, i.v.
[3] = test system: human lung cancer SPC-A4 xenografts; assay: Human lung cancer SPC-A4 xenografts in nude mice; conditions: for Body weight (g) At the beginning / Body weight (g) At the end / RTV / TV (mm^3) d0 / TV (mm^3) d20 / T/C (%): q3w × 3, i.v.
[4] = test system: thirteen tumor cell lines; assay: SRB proliferation assay, panel of thirteen tumor cell lines; assay type: cell-based; conditions: mean over thirteen tumor cell lines
Source text: (§2) 1. Sulfonyl rhodamine B (SRB) protein staining assays were used to detect the inhibition of tumor cell proliferation of the compound.

HCT-116 = assay: SRB protein staining tumor cell proliferation assay; assay type: cell-based, human; conditions: read-out: IC50(mean ± SD)
Source text: as §2

SGC-7901 = assay: as above; assay type: cell-based; conditions: read-out: IC50(mean ± SD)
Source text: as §2

HCT-15 = assay: as above; assay type: cell-based; conditions: read-out: IC50(mean ± SD)
Source text: as §2

SMMC-7721 = assay: as above; assay type: cell-based; conditions: read-out: IC50(mean ± SD)
Source text: as §2

HO-8910 = assay: as above; assay type: cell-based; conditions: read-out: IC50(mean ± SD)
Source text: as §2

HL-60 = assay: as above; assay type: cell-based; conditions: read-out: IC50(mean ± SD)
Source text: as §2

MDA-MB-468 = assay: as above; assay type: cell-based; conditions: read-out: IC50(mean ± SD)
Source text: as §2

A549 = assay: as above; assay type: cell-based; conditions: read-out: IC50(mean ± SD)
Source text: as §2

MDA-MB-435 = assay: as above; assay type: cell-based; conditions: read-out: IC50(mean ± SD)
Source text: as §2

MKN-28 = assay: as above; assay type: cell-based; conditions: read-out: IC50(mean ± SD)
Source text: as §2

MCF-7 = assay: as above; assay type: cell-based
Source text: as §2

NCI-H23 = assay: as above; assay type: cell-based; conditions: read-out: IC50(mean ± SD)
Source text: as §2

BEL-7402 = assay: as above; assay type: cell-based; conditions: read-out: IC50(mean ± SD)
Source text: as §2

[5] = intravenously, three times per week

Compound: COc1cccc2c1C(=O)c1c(O)c3c(c(O)c1C2=O)C[C@@](O)(C(=O)CO)C[C@@H]3O[C@H]1C[C@H](N)[C@H](O)[C@H](C)O1 [adriamycin]
- IC50 (K562 cell line): 0.493 µM
- IC50 ([1]; Homo sapiens, K562/A02 cells): 69.1 µM
- Resistance Factor (RF) ([1]; K562/A02 versus K562): 140.24

Compound: CCc1c2c(nc3ccc(OC(=O)N4CCC(N5CCCCC5)CC4)cc13)-c1cc3c(c(=O)n1C2)COC(=O)[C@]3(O)CC [CPT-11, Irinotecan]
- Body weight (g) At the end ([2]; 15 mg/kg): 18.3 g
- RTV ([2]; 15 mg/kg): 1.9 ± 1.1
- TV (mm^3) d0 ([2]; 15 mg/kg): 101 ± 60 mm^3
- TV (mm^3) d21 ([2]; 15 mg/kg): 171 ± 86 mm^3
- Body weight (g) At the beginning ([3]; 15 mg/kg): 18.2 g
- Body weight (g) At the end ([3]; 15 mg/kg): 18.7 g
- RTV ([3]; 15 mg/kg): 0.5 ± 0.5
- TV (mm^3) d0 ([3]; 15 mg/kg): 121 ± 34 mm^3
- TV (mm^3) d20 ([3]; 15 mg/kg): 55 ± 39 mm^3

Compound: CC[C@@]1(O)C(=O)OCc2c1cc1n(c2=O)Cc2cc3c([N+](=O)[O-])cccc3nc2-1 [9NC, 9-nitrocamptothecin]
- IC50 [4]: 0.167 µM
- IC50 (HCT-116): 0.0137 ± 0.0014 µM
- IC50 (SGC-7901): 0.098 ± 0.00687 µM
- IC50 (HCT-15): 0.00959 ± 0.00048 µM
- IC50 (SMMC-7721): 1.38 ± 0.025 µM
- IC50 (HO-8910): 0.227 ± 0.0408 µM
- IC50 (HL-60): 0.0206 ± 0.00256 µM
- IC50 (MDA-MB-468): 0.0649 ± 0.0296 µM
- IC50 (A549): 0.0319 ± 0.00372 µM
- IC50 (MDA-MB-435): 0.0185 ± 0.00614 µM
- IC50 (MKN-28): 0.116 ± 0.00648 µM
- IC50 (MCF-7; read-out: IC50(mean ± SD)): 0.0626 ± 0.0198 µM
- IC50 (NCI-H23): 0.0703 ± 0.0146 µM
- IC50 (BEL-7402; BEL-7402): 0.0588 ± 0.0106 µM

Compound: C=CCc1c(OC(=O)N2CCC(N3CCCCC3)CC2)ccc2nc3c(cc12)Cn1c-3cc2c(c1=O)COC(=O)[C@]2(O)CC [CPT-4, 10-((4′-piperidylpiperidine)carbonyloxy)-9-allylcamptothecin]
- Body weight (g) At the beginning ([2]; 3.75 mg/kg): 20.2 g
- Body weight (g) At the end ([2]; 3.75 mg/kg): 17.0 g
- RTV ([2]; 3.75 mg/kg): 8.4 ± 2.0
- T/C (%) ([2]; 3.75 mg/kg): 18.9%
- TV (mm^3) d0 ([2]; 3.75 mg/kg): 92 ± 27 mm^3
- TV (mm^3) d21 ([2]; 3.75 mg/kg): 720 ± 75 mm^3
- Body weight (g) At the beginning ([2]; 7.5 mg/kg): 19.5 g
- Body weight (g) At the end ([2]; 7.5 mg/kg): 17.2 g
- RTV ([2]; 7.5 mg/kg): 3.8 ± 2.2
- T/C (%) ([2]; 7.5 mg/kg): 8.31%
- TV (mm^3) d0 ([2]; 7.5 mg/kg): 94 ± 30 mm^3
- TV (mm^3) d21 ([2]; 7.5 mg/kg): 289 ± 108 mm^3
- Body weight (g) At the beginning ([2]; 15 mg/kg): 20.3 g
- Body weight (g) At the end ([2]; 15 mg/kg): 17.8 g
- RTV ([2]; 15 mg/kg): 1.8 ± 0.5
- T/C (%) ([2]; 15 mg/kg): 3.99%
- TV (mm^3) d0 ([2]; 15 mg/kg): 100 ± 20 mm^3
- TV (mm^3) d21 ([2]; 15 mg/kg): 172 ± 51 mm^3
- inhibition of growth of tumor xenografts [2, 5]: can significantly inhibit the growth of tumor xenografts
- xenograft growth inhibition compared with CPT-11 [2, 5]: equivalent to that of CPT-11
- Body weight (g) At the beginning ([3]; 3.75 mg/kg): 17.8 g
- Body weight (g) At the end ([3]; 3.75 mg/kg): 19.3 g
- RTV ([3]; 3.75 mg/kg): 19 ± 5.5
- T/C (%) ([3]; 3.75 mg/kg): 41.4%
- TV (mm^3) d0 ([3]; 3.75 mg/kg): 104 ± 22 mm^3
- TV (mm^3) d20 ([3]; 3.75 mg/kg): 1931 ± 533 mm^3
- Body weight (g) At the beginning ([3]; 7.5 mg/kg): 17.5 g
- Body weight (g) At the end ([3]; 7.5 mg/kg): 19.3 g
- RTV ([3]; 7.5 mg/kg): 14 ± 5.5
- T/C (%) ([3]; 7.5 mg/kg): 31.4%
- TV (mm^3) d0 ([3]; 7.5 mg/kg): 108 ± 61 mm^3
- TV (mm^3) d20 ([3]; 7.5 mg/kg): 1153 ± 172 mm^3
- Body weight (g) At the beginning ([3]; 15 mg/kg): 17.3 g
- Body weight (g) At the end ([3]; 15 mg/kg): 17.5 g
- RTV ([3]; 15 mg/kg): 0.4 ± 0.7
- T/C (%) ([3]; 15 mg/kg): 0.88%
- TV (mm^3) d0 ([3]; 15 mg/kg): 106 ± 28 mm^3
- TV (mm^3) d20 ([3]; 15 mg/kg): 55 ± 99 mm^3
- inhibition of growth of tumor xenografts [3, 5]: can significantly inhibit the growth of tumor xenografts
- xenograft growth inhibition compared with CPT-11 [3, 5]: equivalent to that of CPT-11

The remaining lines, values ahead:

- IC50 [4]: 0.218 µM
- IC50 (HCT-116): 0.0129 ± 0.0054 µM
- IC50 (SGC-7901): 0.465 ± 0.0754 µM
- IC50 (HCT-15): 0.00613 ± 0.00407 µM
- IC50 (SMMC-7721): 0.379 ± 0.0664 µM
- IC50 (HO-8910): 1.12 ± 0.171 µM
- IC50 (HL-60): 0.0067 ± 0.00126 µM
- IC50 (MDA-MB-468): 0.0956 ± 0.0369 µM
- IC50 (A549): 0.0059 ± 0.00161 µM
- IC50 (MDA-MB-435): 0.00342 ± 0.00153 µM
- IC50 (MKN-28): 0.303 ± 0.056 µM
- IC50 (MCF-7; read-out: IC50(mean ± SD)): 0.073 ± 0.0156 µM
- IC50 (NCI-H23): 0.234 ± 0.116 µM
- IC50 (BEL-7402; BEL-7402): 0.136 ± 0.0347 µM
Compound: CCc1c2c(nc3ccc(O)cc13)-c1cc3c(c(=O)n1C2)COC(=O)[C@]3(O)CC [SN38]

- IC50 [4]: 0.379 µM
- IC50 (HCT-116; Homo sapiens): 0.038 ± 0.00219 µM
- IC50 (SGC-7901; Homo sapiens): 0.489 ± 0.0965 µM
- IC50 (HCT-15; Homo sapiens): 0.0144 ± 0.00441 µM
- IC50 (SMMC-7721; Homo sapiens): 1.38 ± 0.172 µM
- IC50 (HO-8910): 1.38 ± 0.0444 µM
- IC50 (HL-60; Homo sapiens): 0.0233 ± 0.00132 µM
- IC50 (MDA-MB-468; Homo sapiens): 0.176 ± 0.0975 µM
- IC50 (A549; Homo sapiens): 0.0281 ± 0.0068 µM
- IC50 (MDA-MB-435; Homo sapiens): 0.0497 ± 0.00605 µM
- IC50 (MKN-28; Homo sapiens): 0.412 ± 0.188 µM
- IC50 (MCF-7; Homo sapiens, MCF7, read-out: IC50(mean ± SD)): 0.387 ± 0.0456 µM
- IC50 (NCI-H23; Homo sapiens): 0.122 ± 0.0363 µM
- IC50 (BEL-7402; Homo sapiens, Bel-7402): 0.42 ± 0.0797 µM
Compound: CC[C@@]1(O)C(=O)OCc2c1cc1n(c2=O)Cc2cc3c(CN(C)C)c(O)ccc3nc2-1 [TPT, Topotecan]
